# Reference: patent US20180116960A1, “TREATING FUNGAL INFECTION OF THE NAIL UNIT” (priority 2009, published 2018)
# Where a name gives a salt, the structure may show the parent alone.
# Key:
# [1] = stability of terbinafine HCl solutions on standing; assay type: physicochemical
# Description: (§1) With 0.1% Tween-80 in water, the solubility of terbinafine HCl in terbinafine HCl-PEG 3350 blend (75/25, W/W) was 4 mg/mL. […] The final pH was 3.0.
# (§2) When DMSO is used as the solvent, the solubility of terbinafine HCl was close to 100 mg/mL. […] The solution was made by weighing 100 mg of terbinafine HCl powder in a glass vial and then adding 1 ml of DMSO solvent. The glass vial was sealed and vortexed for 5 minutes with a mini vortexor. The resulting solution was clear.
# [2] = solubility of terbinafine HCl in solvents; assay type: physicochemical; conditions: thermodynamic from solid
# Description: as §1, §2
smiles,measurement,setting,value
CN(C/C=C/C#CC(C)(C)C)Cc1cccc2ccccc12 [terbinafine HCl],appearance of solution on standing,"[1]; 0.1% Tween-80 in water, room temperature, 5 days",clear but turned cloudy
same,time the solution was stable,[1]; DMSO solution,up to 7 days
same,concentration of solution on storage,"[1]; DMSO solution, after 14 days up to 22 days",remained constant
same,concentration of solution on storage,"[1]; DMSO solution, at 14 days",90000 µg/mL
same,solubility at 5 min,"[2]; DMSO, organic solvent or mixture",~100000 µg/mL
same,solubility,"[2]; aqueous buffer, phosphate-buffered saline (PBS 1×, starting pH 7.4), final pH 4.2",780 µg/mL
same,solubility,"[2]; aqueous with cosolvent or surfactant or cyclodextrin, 0.1% Tween-80 in water, terbinafine HCl in terbinafine HCl-PEG 3350 blend (75/25, W/W), final pH 3.0",4000 µg/mL
